Laboratory results as given in patent US20030129222A1, “Liposomal imexon” (priority 2000, published 2003).

Columns and labels:
[1] = system: transplanted syngeneic tumors; settings: rodents; cited from earlier work
[2] = cited from earlier work
WiDr colon, res = test: Cytotoxicity in tumor cell culture, SRB assay; type: cell-based; settings: Homo sapiens, WiDr; multidrug-resistant; read-out: IC50 against human mouse tumors, WiDr colon res
From the text: (§1) Relative potencies of the N-substituted 2-cyanoaziridine-1-carboxamides in a panel of tumor cell cultures are compared in Table 3. This panel includes the following lines of human tumor cells: sensitive and imexon-resistant lines of multiple myeloma (Matsuoka et al., 1967); ovarian carcinoma resistant to standard drugs (Hamilton et al., 1984); melanoma with a slow growth fraction (Girard et al., 1973); breast carcinoma including sensitive, doxorubicin-resistant (P-glycoprotein-positive) (Taylor et al., 1991), and mitoxantrone-resistant (P-glycoprotein-negative) (Futscher et al., 1994) lines; sensitive and multidrug-resistant colon carcinoma (Noguchi et al., 1979; Dalton et al., 1988); and multidrug-resistant lung carcinoma (P-glycoprotein-negative) (Girard et al., 1973). It also has sensitive (Goldin et al., 1961) and multidrug-resistant (P-glycoprotein-positive) (Salmon and Hersh, 1994) murine L1210 leukemia cells.

WiDr colon, Sens = test: Cytotoxicity in tumor cell culture, SRB assay; type: cell-based; settings: Homo sapiens, WiDr; read-out: IC50 against human mouse tumors, WiDr colon Sens
From the text: as §1

[3] = system: 8226 myeloma, Res (imexon-resistant); test: Cytotoxicity in tumor cell culture, SRB assay; type: cell-based; settings: Homo sapiens; line made resistant to imexon; read-out: IC50 against human mouse tumors, 8226 myeloma Res
From the text: as §1

A-549 lung = test: Cytotoxicity in tumor cell culture, SRB assay; type: cell-based, human; settings: Homo sapiens, A549; read-out: IC50 against human mouse tumors, A-549 lung
From the text: as §1

MCF7 breast, Sens = test: Cytotoxicity in tumor cell culture, SRB assay; type: cell-based, human; settings: Homo sapiens, MCF7; read-out: IC50 against human mouse tumors, MCF7 breast Sens
From the text: as §1

[4] = system: 8226 myeloma, Sens (drug-sensitive); test: Cytotoxicity in tumor cell culture, SRB assay; type: cell-based, human; settings: Homo sapiens; drug-sensitive line; read-out: IC50 against human mouse tumors, 8226 myeloma Sens
From the text: as §1

A375 melan = test: Cytotoxicity in tumor cell culture, SRB assay; type: cell-based, human; settings: Homo sapiens, A-375; read-out: IC50 against human mouse tumors, A375 melan
From the text: as §1

OVCAR3 ovarian = test: Cytotoxicity in tumor cell culture, SRB assay; type: cell-based, human; settings: Homo sapiens, OVCAR-3; read-out: IC50 against human mouse tumors, OVCAR3 ovarian
From the text: as §1

[5] = system: MCF7 breast, mitox (mitoxantrone-resistant); test: Cytotoxicity in tumor cell culture, SRB assay; type: cell-based, human; settings: Homo sapiens, MCF7; mitoxantrone-resistant; read-out: IC50 against human mouse tumors, MCF7 breast mitox
From the text: as §1

[6] = system: MCF7 breast, Dox (doxorubicin-resistant); test: Cytotoxicity in tumor cell culture, SRB assay; type: cell-based, human; settings: Homo sapiens, MCF7; doxorubicin-resistant; read-out: IC50 against human mouse tumors, MCF7 breast Dox
From the text: as §1

L1210 leukemia, Mdr = test: Cytotoxicity in tumor cell culture, MTT assay; type: cell-based, murine; settings: Mus musculus, L1210; MTT assay, multidrug-resistant; read-out: IC50 against human mouse tumors, L1210 leukemia Mdr
From the text: as §1

L1210 leukemia, Sens = test: Cytotoxicity in tumor cell culture, MTT assay; type: cell-based, murine; settings: Mus musculus, L1210; MTT assay; read-out: IC50 against human mouse tumors, L1210 leukemia Sens
From the text: as §1

[7] = system: human lymphoma, melanoma, and prostate cancer cell lines; settings: cited from earlier work
[8] = system: panel of tumor cells in culture; test: Panel of tumor cell cultures (all lines of Table 3); type: cell-based, human, murine
From the text: A set of twenty 2-cyanoaziridine-1-carboxamides was synthesized from 2-cyanoaziridine and appropriate isocyanates. […] It is contemplated that one or more of these 2-cyanoaziridine-1-carboxamides derivatives may be used in combination with a lipid and/or another agent.

fresh human tumor cells = settings: cited from earlier work
[9] = system: Melanoma (cloned fresh human tumors); test: Human tumor cloning assay, [3H]thymine uptake by tumor-colony-forming cells; type: cell-based; settings: No. tested 10
Protocol: (§2) Assays of antitumor agents against fresh human tumor-colony-forming cells provide results that predict better the responses obtained in treating cancer patients than those obtained with long established human cell lines (Salmon et al., 1981). For this reason, the N-phenyl derivative 13 was tested against a variety of fresh human tumors obtained at the Arizona Cancer Center using established methodology (Salmon and Hersh, 1994).

[10] = system: Ovary (cloned fresh human tumors); test: as above; type: cell-based; settings: No. tested 12
Protocol: as §2

[11] = system: Lung (cloned fresh human tumors); test: as above; type: cell-based; settings: No. tested 2
Protocol: as §2

[12] = system: Stomach (cloned fresh human tumors); test: as above; type: cell-based; settings: No. tested 1
Protocol: as §2

[13] = system: Other Gynecologic (cloned fresh human tumors); test: as above; type: cell-based; settings: No. tested 4
Protocol: as §2

[14] = system: Myeloma (cloned fresh human tumors); test: as above; type: cell-based; settings: No. tested 3
Protocol: as §2

[15] = system: Sarcoma (cloned fresh human tumors); test: as above; type: cell-based; settings: Sarcoma, No. tested 8
Protocol: as §2

[16] = system: Breast (cloned fresh human tumors); test: as above; type: cell-based; settings: No. tested 4
Protocol: as §2

N=C1NC(=O)N2CC12 (stereo not drawn) [Imexon, 4-imino-1,3-diazabicyclo[3.1.0]hexan-2-one]
activity against transplanted syngeneic tumors [1]: active
tolerability ([2]; Phase I): well-tolerated
clinical response ([2]; patients with lung cancer, breast cancer, or liver cancer): objective responses or stabilization of the disease
IC50 (WiDr colon, res): > 72 µM
IC50 (WiDr colon, Sens): > 72 µM
IC50 [3]: 115 µM
IC50 (A-549 lung): > 72 µM
IC50 (MCF7 breast, Sens): > 18 µM
IC50 [4]: 17 µM
IC50 (A375 melan): 324 µM
IC50 (OVCAR3 ovarian): 640 µM
IC50 [5]: > 18 µM
IC50 [6]: > 18 µM
IC50 (L1210 leukemia, Mdr): 477 µM
IC50 (L1210 leukemia, Sens): 612 µM
activity against human tumor cell lines in SCID mice [7]: active
selectivity among tumor cell types [8]: selective for multiple myeloma
cytotoxicity in clonogenic assay (fresh human tumor cells): selectively cytotoxic to multiple myeloma
no. sensitive ([9]; Imexon 0.1 μM): 3/5
no. sensitive ([9]; Imexon 1.0 μM): 4
no. sensitive ([9]; Imexon 10 μM): 8
no. sensitive ([10]; Imexon 0.1 μM): 4
no. sensitive ([10]; Imexon 1.0 μM): 3/11
no. sensitive ([10]; Imexon 10 μM): 8
no. sensitive ([11]; Imexon 0.1 μM): 0
no. sensitive ([11]; Imexon 1.0 μM): 0
no. sensitive ([11]; Imexon 10 μM): 2
no. sensitive ([12]; Imexon 0.1 μM): 0
no. sensitive ([12]; Imexon 1.0 μM): 0
no. sensitive ([12]; Imexon 10 μM): 1
no. sensitive ([13]; Imexon 0.1 μM): 0
no. sensitive ([13]; Imexon 1.0 μM): 0
no. sensitive ([13]; Imexon 10 μM): 1
no. sensitive ([14]; Imexon 0.1 μM): 3
no. sensitive ([14]; Imexon 1.0 μM): 3
no. sensitive ([14]; Imexon 10 μM): 3
no. sensitive ([15]; Imexon 0.1 μM): 0/2
no. sensitive ([15]; Imexon 1.0 μM): 2
no. sensitive ([15]; Imexon 10 μM): 5
no. sensitive ([16]; Imexon 0.1 μM): 0
no. sensitive ([16]; Imexon 1.0 μM): 2
no. sensitive ([16]; Imexon 10 μM): 3
